# Experimental data as given in patent US12221453B2, “Substituted pyrazolo[5′,1′:2,3]pyrimido[5,4-b][1,4]oxazines as TYK2 inhibitors” (TAKEDA PHARMACEUTICAL COMPANY LIMITED, priority 2018, dated 2025).
# System: IL-12 induced STAT4 phosphorylation mediated by TYK2/JAK2
# Assay: IL-12 induced pSTAT4 in human PBMC
# Assay type: cell-based
# Conditions: 1 hr compound, 1.7 ng/mL IL-12 for 30 minutes
# Protocol: Human PBMC were isolated from buffy coat and are stored frozen for assays as needed. […] 15 μL of compound or DMSO was added to the well at the desired concentrations and incubated at 1 hr at 37° C. 15 μL of stimulus (final concentration of 1.7 ng/mL IL-12) was added for 30 minutes prior to pSTAT4 and total STAT4 analysis using cell lysates prepared and analyzed by MSD reagents as per manufacturer protocol. The final DMSO concentration of compound in the assay was 0.1%. The IL-12 induced pSTAT4 assay evaluates the inhibition of IL-12 induced STAT4 phosphorlyation mediated by TYK2/JAK2 ([…] complex).
row,SMILES,IC50
1,CNc1cc(-c2cn([C@@H]3CCOC[C@H]3O)c3ncccc23)nc2c(C(=O)N[C@H]3CC[C@@H]3F)cnn12 [Compound I-538],< 0.1 µM
2,CNc1cc(-c2cn([C@H]3CCOC[C@H]3OC)c3ncccc23)nc2c(C(=O)NC3CC[C@@H]3F)cnn12 (stereo partly drawn) [Compound I-546],< 0.1 µM
3,CNc1cc(-c2cn([C@@H]3CC3(F)F)c3ncccc23)nc2c(C(=O)NC3CC[C@H]3O)cnn12 (stereo partly drawn) [Compound I-548],< 0.1 µM
4,CNc1cc(-c2cn([C@@H]3CC3(F)F)c3ncccc23)nc2c(C(=O)N[C@H]3CC[C@H]3O)cnn12 [Compound I-549],< 0.1 µM
5,CNc1cc(-c2cn([C@H]3CC3(F)F)c3ncccc23)nc2c(C(=O)N[C@H]3CC[C@H]3O)cnn12 [Compound I-552],< 0.1 µM
6,CNc1cc(-c2cn(C3COC3)c3ncccc23)nc2c(C(=O)N[C@H]3CC[C@H]3O)cnn12 [Compound I-555],< 0.1 µM
7,CNc1cc(-c2cn(C3COC3)c3ncccc23)nc2c(C(=O)N[C@H]3CC[C@@H]3O)cnn12 [Compound I-558],< 0.1 µM
8,CNc1cc(-c2cn([C@@H]3COC[C@@H]3F)c3ncccc23)nc2c(C(=O)N[C@H]3CC[C@H]3O)cnn12 [Compound I-571],< 0.1 µM
9,CNc1cc(-c2cn([C@H]3COC[C@H]3F)c3ncccc23)nc2c(C(=O)NC3CC[C@H]3O)cnn12 (stereo partly drawn) [Compound I-573],< 0.1 µM
10,CNc1cc(-c2cn([C@H]3COC[C@H]3F)c3ncccc23)nc2c(C(=O)N[C@H]3CC[C@H]3O)cnn12 [Compound I-574],< 0.1 µM
11,CNc1cc(-c2cn([C@H]3C[C@@H](O)C3)c3ncccc23)nc2c(C(=O)N[C@H]3CC[C@@H]3OC)cnn12 [Compound I-606],< 0.1 µM
12,CNc1cc(-c2cn(C3CN(C)C3)c3ncccc23)nc2c(C(=O)NC3CC[C@@H]3OC)cnn12 (stereo partly drawn) [Compound I-608],< 0.1 µM
13,CNc1cc(-c2cn([C@@H]3CCOC3)c3ncccc23)nc2c(C(=O)NC3CC[C@@H]3OC)cnn12 (stereo partly drawn) [Compound I-609],< 0.1 µM
14,CNc1cc(-c2cn([C@@H]3CCOC3)c3ncccc23)nc2c(C(=O)N[C@H]3CC[C@@H]3OC)cnn12 [Compound I-610],< 0.1 µM
15,CNc1cc(-c2cn([C@H]3CCOC3)c3ncccc23)nc2c(C(=O)NC3CC[C@@H]3OC)cnn12 (stereo partly drawn) [Compound I-612],< 0.1 µM
16,CNc1cc(-c2cn([C@H]3CCOC3)c3ncccc23)nc2c(C(=O)N[C@H]3CC[C@@H]3OC)cnn12 [Compound I-613],< 0.1 µM
17,CNc1cc(-c2cn([C@@H]3CCN(C)C3)c3ncccc23)nc2c(C(=O)NC3CC[C@@H]3OC)cnn12 (stereo partly drawn) [Compound I-615],< 0.1 µM
18,CNc1cc(-c2cn([C@@H]3CCN(C)C3)c3ncccc23)nc2c(C(=O)N[C@H]3CC[C@@H]3OC)cnn12 [Compound I-616],< 0.1 µM
19,CNc1cc(-c2cn([C@H]3CCN(C)C3)c3ncccc23)nc2c(C(=O)NC3CC[C@@H]3OC)cnn12 (stereo partly drawn) [Compound I-618],< 0.1 µM
20,CNc1cc(-c2cn([C@H]3CCN(C)C3)c3ncccc23)nc2c(C(=O)N[C@H]3CC[C@@H]3OC)cnn12 [Compound I-619],< 0.1 µM
21,CNc1cc(-c2cn([C@@H]3COC[C@@H]3F)c3ncccc23)nc2c(C(=O)NC3CC[C@@H]3OC)cnn12 (stereo partly drawn) [Compound I-621],< 0.1 µM
22,CNc1cc(-c2cn([C@@H]3COC[C@@H]3F)c3ncccc23)nc2c(C(=O)N[C@H]3CC[C@@H]3OC)cnn12 [Compound I-622],< 0.1 µM

row,SMILES,IC50
1,CNc1cc(-c2cn([C@H]3COC[C@H]3F)c3ncccc23)nc2c(C(=O)N[C@H]3CC[C@@H]3OC)cnn12 [Compound I-625],< 0.1 µM
2,CNc1cc(-c2cn([C@@H]3COC[C@H]3O)c3ncccc23)nc2c(C(=O)N[C@@H]3CC[C@H]3OC)cnn12 [Compound I-629],< 0.1 µM
3,CNc1cc(-c2cn([C@H]3COC[C@@H]3O)c3ncccc23)nc2c(C(=O)N[C@H]3CC[C@@H]3OC)cnn12 [Compound I-631],< 0.1 µM
4,CNc1cc(-c2cn([C@H]3COC[C@@H]3OC)c3ncccc23)nc2c(C(=O)NC3CC[C@@H]3OC)cnn12 (stereo partly drawn) [Compound I-633],< 0.1 µM
5,CNc1cc(-c2cn([C@H]3COC[C@@H]3OC)c3ncccc23)nc2c(C(=O)N[C@H]3CC[C@@H]3OC)cnn12 [Compound I-634],< 0.1 µM
6,CNc1cc(-c2cn([C@@H]3COC[C@H]3OC)c3ncccc23)nc2c(C(=O)NC3CC[C@@H]3OC)cnn12 (stereo partly drawn) [Compound I-636],< 0.1 µM
7,CNc1cc(-c2cn([C@@H]3COC[C@H]3OC)c3ncccc23)nc2c(C(=O)N[C@H]3CC[C@@H]3OC)cnn12 [Compound I-637],< 0.1 µM
8,CNc1cc(-c2cn([C@H]3CN(C)C[C@@H]3F)c3ncccc23)nc2c(C(=O)N[C@H]3CC[C@@H]3OC)cnn12 [Compound I-640],< 0.1 µM
9,CNc1cc(-c2cn([C@@H]3CN(C)C[C@H]3F)c3ncccc23)nc2c(C(=O)NC3CC[C@@H]3OC)cnn12 (stereo partly drawn) [Compound I-642],< 0.1 µM
10,CNc1cc(-c2cn([C@@H]3CN(C)C[C@H]3F)c3ncccc23)nc2c(C(=O)N[C@H]3CC[C@@H]3OC)cnn12 [Compound I-643],< 0.1 µM
11,CNc1cc(-c2cn([C@@H]3CN(C)C[C@H]3OC)c3ncccc23)nc2c(C(=O)NC3CC[C@@H]3OC)cnn12 (stereo partly drawn) [Compound I-645],< 0.1 µM
12,CNc1cc(-c2cn([C@@H]3CN(C)C[C@H]3OC)c3ncccc23)nc2c(C(=O)N[C@H]3CC[C@@H]3OC)cnn12 [Compound I-646],< 0.1 µM
13,CNc1cc(-c2cn([C@H]3CN(C)C[C@@H]3OC)c3ncccc23)nc2c(C(=O)N[C@H]3CC[C@@H]3OC)cnn12 [Compound I-649],< 0.1 µM
14,CNc1cc(-c2cn([C@H]3CCOC[C@@H]3F)c3ncccc23)nc2c(C(=O)NC3CC[C@@H]3OC)cnn12 (stereo partly drawn) [Compound I-651],< 0.1 µM
15,CNc1cc(-c2cn([C@@H]3CCOC[C@H]3F)c3ncccc23)nc2c(C(=O)NC3CC[C@@H]3OC)cnn12 (stereo partly drawn) [Compound I-652],< 0.1 µM
16,CNc1cc(-c2cn([C@H]3CCOC[C@@H]3OC)c3ncccc23)nc2c(C(=O)N[C@H]3CC[C@@H]3OC)cnn12 [Compound I-663],< 0.1 µM
17,CNc1cc(-c2cn([C@H]3CCOC[C@H]3OC)c3ncccc23)nc2c(C(=O)N[C@H]3CC[C@@H]3OC)cnn12 [Compound I-666],< 0.1 µM
18,CNc1cc(-c2cn([C@@H]3CCOC[C@@H]3OC)c3ncccc23)nc2c(C(=O)NC3CC[C@@H]3OC)cnn12 (stereo partly drawn) [Compound I-668],< 0.1 µM
19,CNc1cc(-c2cn([C@@H]3CCOC[C@@H]3OC)c3ncccc23)nc2c(C(=O)N[C@H]3CC[C@@H]3OC)cnn12 [Compound I-669],< 0.1 µM
20,CNc1cc(-c2cn([C@H]3CCC4(C3)OCCO4)c3ncccc23)nc2c(C(=O)NC3CC[C@@H]3OC)cnn12 (stereo partly drawn) [Compound I-671],< 0.1 µM
21,CNc1cc(-c2cn([C@@H]3CCC4(C3)OCCO4)c3ncccc23)nc2c(C(=O)NC3CC[C@@H]3OC)cnn12 (stereo partly drawn) [Compound I-672],< 0.1 µM

# Results, then the molecule that gave them:
row,IC50,SMILES
1,< 0.1 µM,CNc1cc(Nc2cccn([C@H]3C[C@H](F)C3)c2=O)nc2c(C(=O)N[C@H]3CC[C@H](O)C3)cnn12 [Compound I-436]
2,< 0.1 µM,CNc1ccc(-c2cc(NC)n3ncc(C(=O)N[C@@H]4C[C@@H]4F)c3n2)n2ccnc12 [Compound I-479]
3,< 0.1 µM,CNc1ccc(-c2cc(NC)n3ncc(C(=O)N[C@H]4CC[C@@H]4F)c3n2)n2ccnc12 [Compound I-481]
4,< 0.1 µM,CNc1ccc(-c2cc(NC)n3ncc(C(=O)NC4CC[C@H]4F)c3n2)n2ccnc12 (stereo partly drawn) [Compound I-483]
5,< 0.1 µM,CNc1ccc(-c2cc(NC)n3ncc(C(=O)NC4CC[C@H]4O)c3n2)n2ccnc12 (stereo partly drawn) [Compound I-484]
6,< 0.1 µM,CNc1ccc(-c2cc(NC)n3ncc(C(=O)N[C@H]4CC[C@H]4O)c3n2)n2ccnc12 [Compound I-485]
7,< 0.1 µM,CNc1ccc(-c2cc(NC)n3ncc(C(=O)NC4CC[C@@H]4OC)c3n2)n2ccnc12 (stereo partly drawn) [Compound I-488]
8,< 0.1 µM,CNc1ccc(-c2cc(NC)n3ncc(C(=O)N[C@@H]4CC[C@H]4OC)c3n2)n2ccnc12 [Compound I-490]
9,< 0.1 µM,CNc1cc(-c2cn([C@H]3C[C@@H](O)C3)c3ncccc23)nc2c(C(=O)NC3CC3)cnn12 [Compound I-495]
10,< 0.1 µM,CNc1cc(-c2cn(C3COC3)c3ncccc23)nc2c(C(=O)NC3CC[C@@H]3F)cnn12 (stereo partly drawn) [Compound I-507]
11,< 0.1 µM,CNc1cc(-c2cn(C3COC3)c3ncccc23)nc2c(C(=O)N[C@H]3CC[C@@H]3F)cnn12 [Compound I-508]
12,< 0.1 µM,CNc1cc(-c2cn([C@H]3C[C@@H](O)C3)c3ncccc23)nc2c(C(=O)NC3CC[C@@H]3F)cnn12 (stereo partly drawn) [Compound I-510]
13,< 0.1 µM,CNc1cc(-c2cn([C@H]3C[C@@H](O)C3)c3ncccc23)nc2c(C(=O)N[C@H]3CC[C@@H]3F)cnn12 [Compound I-511]
14,< 0.1 µM,CNc1cc(-c2cn(C3CN(C)C3)c3ncccc23)nc2c(C(=O)NC3CC[C@@H]3F)cnn12 (stereo partly drawn) [Compound I-513]
15,< 0.1 µM,CNc1cc(-c2cn(C3CN(C)C3)c3ncccc23)nc2c(C(=O)N[C@H]3CC[C@@H]3F)cnn12 [Compound I-514]
16,< 0.1 µM,CNc1cc(-c2cn([C@H]3COC[C@@H]3OC)c3ncccc23)nc2c(C(=O)N[C@H]3CC[C@@H]3F)cnn12 [Compound I-523]
17,< 0.1 µM,CNc1cc(-c2cn([C@H]3COC[C@@H]3OC)c3ncccc23)nc2c(C(=O)NC3CC[C@H]3F)cnn12 (stereo partly drawn) [Compound I-528]
18,< 0.1 µM,CNc1cc(-c2cn([C@H]3COC[C@@H]3OC)c3ncccc23)nc2c(C(=O)N[C@H]3CC[C@H]3F)cnn12 [Compound I-529]
19,< 0.1 µM,CNc1cc(-c2cn([C@H]3COC[C@@H]3OC)c3ncccc23)nc2c(C(=O)N[C@@H]3CC[C@@H]3F)cnn12 [Compound I-530]
20,< 0.1 µM,CNc1cc(-c2cn([C@@H]3COC[C@H]3OC)c3ncccc23)nc2c(C(=O)NC3CC[C@H]3F)cnn12 (stereo partly drawn) [Compound I-531]
